Measurements reported in ChEMBL document CHEMBL1156041, “Synthesis and antifungal activity of benzo[d]oxazole-4,7-diones” (2009).
In brackets after ≈: the same amount, converted by molar mass.

Tests used:
Assay type in all cases: functional
Cryptococcus neoformans = test: Antifungal activity against Cryptococcus neoformans KCCM 50564 after 1 day by twofold broth dilution method; settings: KCCM 50564, 24 h
Candida albicans = test: Antifungal activity against Candida albicans Berkout KCCM 50235 after 1 day by twofold broth dilution method; settings: KCCM 50235, 24 h
Aspergillus flavus = test: Antifungal activity against Aspergillus flavus KCCM 11899 by twofold broth dilution method
Aspergillus niger = test: Antifungal activity against Aspergillus niger KCTC 1231 after 2 days by twofold broth dilution method; settings: KCTC 1231, 48 h
Pichia kudriavzevii = test: Antifungal activity against Candida krusei Berkout KCCM 11655 after 1 day by twofold broth dilution method; settings: KCCM 11655, 24 h
Candida tropicalis = test: Antifungal activity against Candida tropicalis Berkout KCCM 50662 after 1 day by twofold broth dilution method; settings: KCCM 50662, 24 h

| MIC (Cryptococcus neoformans) [µg/mL] | MIC (Candida albicans) [µg/mL] | MIC (Aspergillus flavus) [µg/mL] | MIC (Aspergillus niger) [µg/mL] | MIC (Pichia kudriavzevii) [µg/mL] | MIC (Candida tropicalis) [µg/mL] | Compound |
| --- | --- | --- | --- | --- | --- | --- |
| 12.5 (≈ 27.8 µM) | 25 (≈ 55.6 µM) | 6.3 (≈ 14 µM) | 12.5 (≈ 27.8 µM) | 3.2 (≈ 7.12 µM) | 12.5 (≈ 27.8 µM) | CCc1nc2c(o1)C(=O)C(Sc1ccc(C)c(C)c1)=C(Sc1ccc(C)c(C)c1)C2=O |
| 12.5 (≈ 34.4 µM) | 50 (≈ 138 µM) | 25 (≈ 68.8 µM) | 50 (≈ 138 µM) | 25 (≈ 68.8 µM) | 12.5 (≈ 34.4 µM) | CCc1nc2c(o1)C(=O)C(Nc1ccc(O)cc1)=C(Br)C2=O |
| 12.5 (≈ 33.6 µM) | 12.5 (≈ 33.6 µM) | 6.3 (≈ 16.9 µM) | 12.5 (≈ 33.6 µM) | 50 (≈ 134 µM) | 6.3 (≈ 16.9 µM) | CCc1nc2c(o1)C(=O)C(Nc1cccc(C#N)c1)=C(Br)C2=O |
| 25 (≈ 63.7 µM) | 50 (≈ 127 µM) | 25 (≈ 63.7 µM) | 25 (≈ 63.7 µM) | 50 (≈ 127 µM) | 50 (≈ 127 µM) | CCc1nc2c(o1)C(=O)C(Nc1ccc([N+](=O)[O-])cc1)=C(Br)C2=O |
| 12.5 (≈ 31.8 µM) | 12.5 (≈ 31.8 µM) | 12.5 (≈ 31.8 µM) | 12.5 (≈ 31.8 µM) | 12.5 (≈ 31.8 µM) | 12.5 (≈ 31.8 µM) | CCc1nc2c(o1)C(=O)C(Sc1ccccc1)=C(Sc1ccccc1)C2=O |
| 100 (≈ 617 µM) | > 100 | > 100 | > 100 | 100 (≈ 617 µM) | 50 (≈ 308 µM) | CCc1nc2c(N)cccc2o1 |
| 3.2 (≈ 6.76 µM) | 6.3 (≈ 13.3 µM) | 3.2 (≈ 6.76 µM) | 6.3 (≈ 13.3 µM) | 3.2 (≈ 6.76 µM) | 6.3 (≈ 13.3 µM) | CCc1nc2c(o1)C(=O)C(Nc1ccc(I)cc1)=C(Br)C2=O |
| 1.6 (≈ 4.61 µM) | 1.6 (≈ 4.61 µM) | 3.2 (≈ 9.22 µM) | 1.6 (≈ 4.61 µM) | 3.2 (≈ 9.22 µM) | 3.2 (≈ 9.22 µM) | CCc1nc2c(o1)C(=O)C(Nc1ccccc1)=C(Br)C2=O |
| 3.2 (≈ 8.39 µM) | 6.3 (≈ 16.5 µM) | 3.2 (≈ 8.39 µM) | 3.2 (≈ 8.39 µM) | 6.3 (≈ 16.5 µM) | 6.3 (≈ 16.5 µM) | CCc1nc2c(o1)C(=O)C(Nc1cccc(Cl)c1)=C(Br)C2=O |
| 12.5 (≈ 17.6 µM) | 50 (≈ 70.5 µM) | 25 (≈ 35.3 µM) | 25 (≈ 35.3 µM) | 12.5 (≈ 17.6 µM) | 50 (≈ 70.5 µM) | CCc1nc2c(o1)C(=O)C(Sc1ccc(Br)c(Br)c1)=C(Sc1ccc(Br)c(Br)c1)C2=O |

Further lines, the compound ahead of its results:

| Compound | MIC (Cryptococcus neoformans) [µg/mL] | MIC (Candida albicans) [µg/mL] | MIC (Aspergillus flavus) [µg/mL] | MIC (Aspergillus niger) [µg/mL] | MIC (Pichia kudriavzevii) [µg/mL] | MIC (Candida tropicalis) [µg/mL] |
| --- | --- | --- | --- | --- | --- | --- |
| CCc1nc2c(o1)C(=O)C(Nc1ccc(Cl)cc1)=C(Br)C2=O | 6.3 (≈ 16.5 µM) | 6.3 (≈ 16.5 µM) | 3.2 (≈ 8.39 µM) | 3.2 (≈ 8.39 µM) | 6.3 (≈ 16.5 µM) | 25 (≈ 65.5 µM) |
| CCc1nc2c(o1)C(=O)C(Nc1ccc(F)cc1)=C(Br)C2=O | 6.3 (≈ 17.3 µM) | 12.5 (≈ 34.2 µM) | 3.2 (≈ 8.76 µM) | 6.3 (≈ 17.3 µM) | 6.3 (≈ 17.3 µM) | 6.3 (≈ 17.3 µM) |
| CCc1nc2c(o1)C(=O)C(Sc1ccc(CC)c(CC)c1)=C(Sc1ccc(CC)c(CC)c1)C2=O | 25 (≈ 49.4 µM) | 12.5 (≈ 24.7 µM) | 25 (≈ 49.4 µM) | 25 (≈ 49.4 µM) | 50 (≈ 98.9 µM) | 25 (≈ 49.4 µM) |
| CCc1nc2c(o1)C(=O)C(Nc1ccc(C#N)cc1)=C(Br)C2=O | 25 (≈ 67.2 µM) | 50 (≈ 134 µM) | 25 (≈ 67.2 µM) | 25 (≈ 67.2 µM) | 50 (≈ 134 µM) | 50 (≈ 134 µM) |
| CCc1nc2c(o1)C(=O)C(Nc1cccc(O)c1)=C(Br)C2=O | 25 (≈ 68.8 µM) | 50 (≈ 138 µM) | 25 (≈ 68.8 µM) | 50 (≈ 138 µM) | 25 (≈ 68.8 µM) | 6.3 (≈ 17.3 µM) |
| CCc1nc2c(o1)C(=O)C(Nc1ccc(Br)cc1)=C(Br)C2=O | 1.6 (≈ 3.76 µM) | 0.8 (≈ 1.88 µM) | 1.6 (≈ 3.76 µM) | 0.8 (≈ 1.88 µM) | 3.2 (≈ 7.51 µM) | 3.2 (≈ 7.51 µM) |
| CCc1nc2c(o1)C(=O)C(Nc1ccc(OC)cc1)=C(Br)C2=O | 3.2 (≈ 8.48 µM) | 6.35 (≈ 16.8 µM) | 6.3 (≈ 16.7 µM) | 3.2 (≈ 8.48 µM) | 1.6 (≈ 4.24 µM) | 12.5 (≈ 33.1 µM) |
| CCc1nc2c(o1)C(=O)C(Nc1cccc(F)c1)=C(Br)C2=O | 6.3 (≈ 17.3 µM) | 12.5 (≈ 34.2 µM) | 6.3 (≈ 17.3 µM) | 6.3 (≈ 17.3 µM) | 6.3 (≈ 17.3 µM) | 3.2 (≈ 8.76 µM) |
| Nc1nc(=O)[nH]cc1F [FLUCYTOSINE] | 3.2 (≈ 24.8 µM) | 3.2 (≈ 24.8 µM) | 1.6 (≈ 12.4 µM) | 1.6 (≈ 12.4 µM) | 3.2 (≈ 24.8 µM) | 3.2 (≈ 24.8 µM) |
